Experimental data reported in the supplement of paper PMC10307832.

Assays:
Assay in all cases: relative viability (nuclei count vs DMSO), 5 days (fraction); higher = more cells survive
A-427 = tested on: A-427
Outline: (§1)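 Values are medians from duplicate plates. Each reflects relative viability, defined as the nuclei count of treated wells over that of vehicle wells. Lung cancer cell lines in 1536-well plates were pin-tool dosed one day after seeding with one drug alone or with a fixed anchor-drug dose plus five library-drug doses (not always all listed) in √10 steps, then fixed, stained and imaged at 4× after 5 days.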

COR-L 105 = tested on: COR-L 105
Outline: as §1

ChaGo-K-1 = tested on: ChaGo-K-1
Outline: as §1

EKVX = tested on: EKVX
Outline: as §1

EMC-BAC-2 = tested on: EMC-BAC-2
Outline: as §1

H3255 = tested on: H3255
Outline: as §1

HCC-366 = tested on: HCC-366
Outline: as §1

LK-2 = tested on: LK-2
Outline: as §1

LOU-NH91 = tested on: LOU-NH91
Outline: as §1

NCI-H1563 = tested on: NCI-H1563
Outline: as §1

NCI-H1666 = tested on: NCI-H1666
Outline: as §1

NCI-H1734 = tested on: NCI-H1734
Outline: as §1

NCI-H1755 = tested on: NCI-H1755
Outline: as §1

NCI-H1975 = tested on: NCI-H1975
Outline: as §1

NCI-H2170 = tested on: NCI-H2170
Outline: as §1

NCI-H23 = tested on: NCI-H23
Outline: as §1

NCI-H441 = tested on: NCI-H441
Outline: as §1

NCI-H520 = tested on: NCI-H520
Outline: as §1

NCI-H596 = tested on: NCI-H596
Outline: as §1

PC-3 [JPC-3] = tested on: PC-3 [JPC-3]
Outline: as §1

SK-MES-1 = tested on: SK-MES-1
Outline: as §1

SW 900 = tested on: SW 900
Outline: as §1

`CCN(CC)CCCCNc1ncc2cc(-c3cc(OC)cc(OC)c3)c(NC(=O)NC(C)(C)C)nc2n1` + N=C(N)NC(=N)NCCc1ccccc1 [Phenformin] (partner 250 µM) showed a relative viability (A-427; first compound 0.01 µM) of 0.294, a relative viability (A-427; first compound 0.03162 µM) of 0.273 and a relative viability (A-427; first compound 0.1 µM) of 0.289. It also gave a relative viability (A-427; first compound 0.3162 µM) of 0.204, a relative viability (A-427; first compound 1 µM) of 0.173 and a relative viability (COR-L 105; first compound 0.01 µM) of 0.476. The relative viability (COR-L 105; first compound 0.03162 µM) was 0.521, the relative viability (COR-L 105; first compound 0.1 µM) was 0.47 and the relative viability (COR-L 105; first compound 0.3162 µM) was 0.615. The relative viability (COR-L 105; first compound 1 µM) was 0.421, the relative viability (ChaGo-K-1; first compound 0.01 µM) was 0.541 and the relative viability (ChaGo-K-1; first compound 0.03162 µM) was 0.45. It also gave a relative viability (ChaGo-K-1; first compound 0.1 µM) of 0.585, a relative viability (ChaGo-K-1; first compound 0.3162 µM) of 0.47 and a relative viability (ChaGo-K-1; first compound 1 µM) of 0.474. It also gave a relative viability (EKVX; first compound 0.01 µM) of 0.223, a relative viability (EKVX; first compound 0.03162 µM) of 0.227 and a relative viability (EKVX; first compound 0.1 µM) of 0.243. It also gave a relative viability (EKVX; first compound 0.3162 µM) of 0.258, a relative viability (EKVX; first compound 1 µM) of 0.248 and a relative viability (EMC-BAC-2; first compound 0.01 µM) of 0.525. For the same compound, the relative viability (EMC-BAC-2; first compound 0.03162 µM) was 0.586, the relative viability (EMC-BAC-2; first compound 0.1 µM) was 0.562 and the relative viability (EMC-BAC-2; first compound 0.3162 µM) was 0.592. For the same compound, the relative viability (EMC-BAC-2; first compound 1 µM) was 0.418, the relative viability (H3255; first compound 0.01 µM) was 0.347 and the relative viability (H3255; first compound 0.03162 µM) was 0.336. It also gave a relative viability (H3255; first compound 0.1 µM) of 0.27, a relative viability (H3255; first compound 0.3162 µM) of 0.408 and a relative viability (H3255; first compound 1 µM) of 0.356. The relative viability (HCC-366; first compound 0.01 µM) was 0.627, the relative viability (HCC-366; first compound 0.03162 µM) was 0.666 and the relative viability (HCC-366; first compound 0.1 µM) was 0.65. For the same compound, the relative viability (HCC-366; first compound 0.3162 µM) was 0.622, the relative viability (HCC-366; first compound 1 µM) was 0.581 and the relative viability (LK-2; first compound 0.01 µM) was 0.638. For the same compound, the relative viability (LK-2; first compound 0.03162 µM) was 0.289, the relative viability (LK-2; first compound 0.1 µM) was 0.239 and the relative viability (LK-2; first compound 0.3162 µM) was 0.304. For the same compound, the relative viability (LK-2; first compound 1 µM) was 0.223, the relative viability (LOU-NH91; first compound 0.01 µM) was 0.572 and the relative viability (LOU-NH91; first compound 0.03162 µM) was 0.683. It also gave a relative viability (LOU-NH91; first compound 0.1 µM) of 0.795, a relative viability (LOU-NH91; first compound 0.3162 µM) of 0.797 and a relative viability (LOU-NH91; first compound 1 µM) of 0.713. For the same compound, the relative viability (NCI-H1563; first compound 0.01 µM) was 0.662, the relative viability (NCI-H1563; first compound 0.03162 µM) was 0.66 and the relative viability (NCI-H1563; first compound 0.1 µM) was 0.689. For the same compound, the relative viability (NCI-H1563; first compound 0.3162 µM) was 0.582, the relative viability (NCI-H1563; first compound 1 µM) was 0.549 and the relative viability (NCI-H1666; first compound 0.01 µM) was 0.582. For the same compound, the relative viability (NCI-H1666; first compound 0.03162 µM) was 0.562, the relative viability (NCI-H1666; first compound 0.1 µM) was 0.574 and the relative viability (NCI-H1666; first compound 0.3162 µM) was 0.644. It also gave a relative viability (NCI-H1666; first compound 1 µM) of 0.507, a relative viability (NCI-H1734; first compound 0.01 µM) of 0.356 and a relative viability (NCI-H1734; first compound 0.03162 µM) of 0.363. The relative viability (NCI-H1734; first compound 0.1 µM) was 0.384, the relative viability (NCI-H1734; first compound 0.3162 µM) was 0.364 and the relative viability (NCI-H1734; first compound 1 µM) was 0.354. The relative viability (NCI-H1755; first compound 0.01 µM) was 0.634, the relative viability (NCI-H1755; first compound 0.03162 µM) was 0.649 and the relative viability (NCI-H1755; first compound 0.1 µM) was 0.677. It also gave a relative viability (NCI-H1755; first compound 0.3162 µM) of 0.675, a relative viability (NCI-H1755; first compound 1 µM) of 0.585 and a relative viability (NCI-H1975; first compound 0.01 µM) of 0.429. It also gave a relative viability (NCI-H1975; first compound 0.03162 µM) of 0.398, a relative viability (NCI-H1975; first compound 0.1 µM) of 0.481 and a relative viability (NCI-H1975; first compound 0.3162 µM) of 0.408. The relative viability (NCI-H1975; first compound 1 µM) was 0.401, the relative viability (NCI-H2170; first compound 0.01 µM) was 0.417 and the relative viability (NCI-H2170; first compound 0.03162 µM) was 0.416. For the same compound, the relative viability (NCI-H2170; first compound 0.1 µM) was 0.414, the relative viability (NCI-H2170; first compound 0.3162 µM) was 0.413 and the relative viability (NCI-H2170; first compound 1 µM) was 0.345. For the same compound, the relative viability (NCI-H23; first compound 0.01 µM) was 0.804, the relative viability (NCI-H23; first compound 0.03162 µM) was 0.878 and the relative viability (NCI-H23; first compound 0.1 µM) was 0.791. For the same compound, the relative viability (NCI-H23; first compound 0.3162 µM) was 0.879, the relative viability (NCI-H23; first compound 1 µM) was 0.781 and the relative viability (NCI-H441; first compound 0.01 µM) was 0.826. It also gave a relative viability (NCI-H441; first compound 0.03162 µM) of 0.87, a relative viability (NCI-H441; first compound 0.1 µM) of 1.02 and a relative viability (NCI-H441; first compound 0.3162 µM) of 0.835. It also gave a relative viability (NCI-H441; first compound 1 µM) of 0.933, a relative viability (NCI-H520; first compound 0.01 µM) of 0.453 and a relative viability (NCI-H520; first compound 0.03162 µM) of 0.519. The relative viability (NCI-H520; first compound 0.1 µM) was 0.623, the relative viability (NCI-H520; first compound 0.3162 µM) was 0.335 and the relative viability (NCI-H520; first compound 1 µM) was 0.191. For the same compound, the relative viability (NCI-H596; first compound 0.01 µM) was 0.66, the relative viability (NCI-H596; first compound 0.03162 µM) was 0.727 and the relative viability (NCI-H596; first compound 0.1 µM) was 0.899. For the same compound, the relative viability (NCI-H596; first compound 0.3162 µM) was 0.832, the relative viability (NCI-H596; first compound 1 µM) was 0.621 and the relative viability (PC-3 [JPC-3]; first compound 0.01 µM) was 0.485. For the same compound, the relative viability (PC-3 [JPC-3]; first compound 0.03162 µM) was 0.484, the relative viability (PC-3 [JPC-3]; first compound 0.1 µM) was 0.487 and the relative viability (PC-3 [JPC-3]; first compound 0.3162 µM) was 0.498. It also gave a relative viability (PC-3 [JPC-3]; first compound 1 µM) of 0.449, a relative viability (SK-MES-1; first compound 0.01 µM) of 0.706 and a relative viability (SK-MES-1; first compound 0.03162 µM) of 0.673. It also gave a relative viability (SK-MES-1; first compound 0.1 µM) of 0.637, a relative viability (SK-MES-1; first compound 0.3162 µM) of 0.641 and a relative viability (SK-MES-1; first compound 1 µM) of 0.483. For the same compound, the relative viability (SW 900; first compound 0.01 µM) was 0.529, the relative viability (SW 900; first compound 0.03162 µM) was 0.678 and the relative viability (SW 900; first compound 0.3162 µM) was 0.48. For the same compound, the relative viability (SW 900; first compound 1 µM) was 0.364.
